Reference: article PMC6332299, “Nonprenylated Xanthones from Gentiana lutea, Frasera caroliniensis, and Centaurium erythraea as Novel Inhibitors of Vascular Smooth Muscle Cell Proliferation” (Molecules, 2015)

Tests used:
Format in all cases: cell-based
rat aortic VSMC [1] = assay: Resazurin conversion assay of PDGF-induced VSMC proliferation; conditions: for activity at 30 µM: 30 µM compound, residual proliferation relative to PDGF + 0.1% DMSO control = 1.00, means ± SD, n = 3, read-out: Inhibition of VSMC Proliferation, Resazurin Conversion Assay, at 30 µM (Relative to Solvent vehicle = 1.00, RU); for activity at 30 µM / IC50: PDGF-BB 20 ng/mL; for IC50: concentrations 1, 3, 10, 30 µM, read-out: Inhibition of VSMC Proliferation, Resazurin Conversion Assay, IC50; for Anti-proliferative activity in rat aortic VSMC (in words): summary rating of the 14 xanthones
Protocol: With the aim to identify novel natural product inhibitors of VSMC proliferation, we tested several natural products (not shown) from our in-house compound collection on their ability to inhibit proliferation of rat aortic VSMC induced by the platelet-derived growth factor (PDGF), which is a mitogen strongly associated with aberrant proliferation in restenosis and leads to excessive proliferation of VSMC. After stimulation of the VSMC for 48 h with PDGF, the total number of metabolically active cells was measured by resazurin conversion. In this way, the xanthone gentisin (1,7-dihydroxy-3-methoxyxanthone (1)), previously isolated from the root material of G. lutea, a well-known medicinal bitter plant from the Gentianaceae family, was identified as a novel inhibitor of VSMC proliferation. […] Although an anti-proliferative effect of a prenylated xanthone has been described earlier, it represents a novel activity for simple, nonprenylated xanthones.
(§1) Rat aortic VSMC were acquired from Lonza and grown in Dulbecco’s modified essential medium (DMEM)–F12 (1:1) supplemented with 20% fetal calf serum (FCS) and gentamycin. For all experiments, cells were seeded in 96-well plates (5 × 10^3 cells/well) and incubated for 24 h. Subsequently, cells were serum-starved for another 24 h to make them quiescent.
Quiescent VSMC were pre-treated with the studied test compounds, G. lutea root extract, or vehicle (0.1% DMSO) for 30 min and then stimulated with PDGF-BB (20 ng/mL) for 48 h. The number of metabolically active VSMC was measured by resazurin conversion. Therefore, after washing the cells with phosphate-buffered saline (PBS), they were incubated in serum-free medium containing resazurin (10 µg/mL) for 2 h. Measurement of total metabolic activity was performed by monitoring the increase in fluorescence at 590 nm using an excitation wavelength of 535 nm in a 96-well plate reader (Tecan GENios Pro, Grödig, Austria). The assay was validated using the VSMC proliferation inhibitor taxol (IC50 = 0.1 µM [21]).

rat aortic VSMC [2] = assay: BrdU incorporation assay (DNA synthesis) in PDGF-stimulated VSMC; conditions: PDGF-BB 20 ng/mL, BrdU added after 2 h, read after 22 h, read-out: Inhibition of VSMC Proliferation, BrdU Assay, IC50
Protocol: In this assay, the DNA synthesis in dividing VSMC is measured by quantification of BrdU incorporation into newly synthesized DNA.
as §1
Quiescent VSMC were pre-treated with test compounds or vehicle (0.1% DMSO) for 30 min and then stimulated with PDGF-BB (20 ng/mL) for 2 h. Subsequently, BrdU was added to estimate de novo DNA synthesis in VSMC [29, 30]. After 22 h, the BrdU incorporation was determined according to the instructions of the manufacturer (Roche Diagnostics, Vienna, Austria).

rat aortic VSMC [3] = assay: Assessment of cytotoxicity by LDH release; conditions: concentration range up to 30 µM; PDGF-BB 20 ng/mL, 24 h
Protocol: Loss of VSMC membrane integrity as a sign for cell death was quantified by measuring the release of the soluble cytosolic protein LDH.
as §1
Quiescent VSMC were pre-treated with test compounds, positive control (digitonin 100 µg/mL, corresponding to 81 µM), or vehicle (0.1% DMSO) for 30 min and then stimulated with PDGF-BB (20 ng/mL) for 24 h. Loss of cell membrane integrity as an indicator for cell death was quantified by measuring the release of LDH [31, 32]. Therefore, the LDH activity of the cell supernatant was determined. To estimate total LDH, identically treated samples were incubated in the presence of 1% Triton X-100 for 45 min. […] The enzyme reaction was stopped by oxymate (1.78 mg/mL) and the absorbance was read at 490 nm. The percentage of extracellular LDH enzyme activity was calculated to estimate potential effects of the samples on cell viability.

[4] = Rattus norvegicus, VSMC, 48 h, 48 h

COc1cc(O)c2c(=O)c3ccc(O)c(OC)c3oc2c1 [Compound 10, 1,6-dihydroxy-3,5-dimethoxyxanthone]
activity at 30 µM (rat aortic VSMC [1]; Rattus norvegicus, VSMC, 48 h): 98.7 ± 2.5%

COc1cc(O)c2c(=O)c3c(O)c(OC)c(O)c(OC)c3oc2c1 [Compound 13, 1,6,8-trihydroxy-3,5,7-trimethoxyxanthone]
activity at 30 µM (rat aortic VSMC [1]; Rattus norvegicus, VSMC, 48 h): 84.6 ± 9.6%

COc1cc(O)c2c(=O)c3cc(O)ccc3oc2c1 [Compound 1, 1,7-dihydroxy-3-methoxyxanthone]
IC50 (rat aortic VSMC [2]): 5.74 µM
Inhibition of PDGF-induced VSMC proliferation at 30 µM (in words) (rat aortic VSMC [1]; 30 µM, 48 h, resazurin conversion): completely inhibited PDGF-induced proliferation to the basal level
IC50 (rat aortic VSMC [1]; 48 h): 7.84 µM
IC50 (rat aortic VSMC [1]; [4]): 7.8 µM
activity at 30 µM (rat aortic VSMC [1]; Rattus norvegicus, VSMC, 48 h): 33.5 ± 17.5%
Anti-proliferative activity in rat aortic VSMC (in words) (rat aortic VSMC [1]): most potent compound
Cytotoxicity (LDH release in the culture medium) (rat aortic VSMC [3]): not cytotoxic

COc1cc(O)c2c(=O)c3c(O)ccc(OC)c3oc2c1 [Compound 6, 1,8-dihydroxy-3,5-dimethoxyxanthone]
IC50 (rat aortic VSMC [2]): 7.37 µM
IC50 (rat aortic VSMC [1]; [4]): 12.5 µM
activity at 30 µM (rat aortic VSMC [1]; Rattus norvegicus, VSMC, 48 h): 51.4 ± 6.7%
Anti-proliferative activity in rat aortic VSMC (in words) (rat aortic VSMC [1]): potent inhibitory activity
Cytotoxicity (LDH release in the culture medium) (rat aortic VSMC [3]): not cytotoxic

COc1ccc2oc3c(OC)c(OC)c(OC)c(O)c3c(=O)c2c1 [Compound 5, 1-hydroxy-2,3,4,7-tetramethoxyxanthone]
activity at 30 µM (rat aortic VSMC [1]; Rattus norvegicus, VSMC, 48 h): 75.4 ± 1.4%
Anti-proliferative activity in rat aortic VSMC (in words) (rat aortic VSMC [1]): weakly active or inactive

COc1ccc2oc3cc(O)cc(O)c3c(=O)c2c1 [Compound 2, 1,3-dihydroxy-7-methoxyxanthone]
IC50 (rat aortic VSMC [1]; [4]): 27 µM
activity at 30 µM (rat aortic VSMC [1]; Rattus norvegicus, VSMC, 48 h): 59.3 ± 8.4%
Anti-proliferative activity in rat aortic VSMC (in words) (rat aortic VSMC [1]): moderately active

COc1cc(O)c2c(=O)c3c(O)ccc(O)c3oc2c1 [Compound 9, 1,5,8-trihydroxy-3-methoxyxanthone]
activity at 30 µM (rat aortic VSMC [1]; Rattus norvegicus, VSMC, 48 h): 78.3 ± 3.1%

COc1cc(O)c2c(=O)c3c(O)c(OC)ccc3oc2c1 [Compound 7, 1,8-dihydroxy-3,7-dimethoxyxanthone]
IC50 (rat aortic VSMC [2]): 7.53 µM
IC50 (rat aortic VSMC [1]; [4]): 10.2 µM
activity at 30 µM (rat aortic VSMC [1]; Rattus norvegicus, VSMC, 48 h): 0.2 ± 1.4%
Anti-proliferative activity in rat aortic VSMC (in words) (rat aortic VSMC [1]): potent inhibitory activity
Cytotoxicity (LDH release in the culture medium) (rat aortic VSMC [3]): not cytotoxic

COc1c(O)cc2oc3c(O)cccc3c(=O)c2c1O [Compound 14, 1,3,5-trihydroxy-2-methoxyxanthone]
activity at 30 µM (rat aortic VSMC [1]; Rattus norvegicus, VSMC, 48 h): 86.2 ± 10.4%

COc1cc(O)c2c(=O)c3cccc(O)c3oc2c1 [Compound 8, 1,5-dihydroxy-3-methoxyxanthone]
IC50 (rat aortic VSMC [1]; [4]): 29.5 µM
activity at 30 µM (rat aortic VSMC [1]; Rattus norvegicus, VSMC, 48 h): 71.3 ± 6.1%
Anti-proliferative activity in rat aortic VSMC (in words) (rat aortic VSMC [1]): moderately active

COc1c(OC)c(O)c2c(=O)c3cccc(OC)c3oc2c1OC [Compound 4, 1-hydroxy-2,3,4,5-tetramethoxyxanthone]
IC50 (rat aortic VSMC [2]): 24.5 µM
IC50 (rat aortic VSMC [1]; [4]): 11.2 µM
activity at 30 µM (rat aortic VSMC [1]; Rattus norvegicus, VSMC, 48 h): 21.6 ± 5.8%
Anti-proliferative activity in rat aortic VSMC (in words) (rat aortic VSMC [1]): potent inhibitory activity
Cytotoxicity (LDH release in the culture medium) (rat aortic VSMC [3]): not cytotoxic

COc1cc(O)c2c(=O)c3c(OC)c(OC)c(O)c(OC)c3oc2c1 [Compound 12, 1,6-dihydroxy-3,5,7,8-tetramethoxyxanthone]
activity at 30 µM (rat aortic VSMC [1]; Rattus norvegicus, VSMC, 48 h): 86.2 ± 6.8%

COc1c(O)cc2oc3c(OC)c(O)ccc3c(=O)c2c1O [Compound 11, 1,3,6-trihydroxy-2,5-dimethoxyxanthone]
activity at 30 µM (rat aortic VSMC [1]; Rattus norvegicus, VSMC, 48 h): 94.2 ± 4.2%

COc1cc2oc3c(OC)cccc3c(=O)c2c(O)c1OC [Compound 3, 1-hydroxy-2,3,5-trimethoxyxanthone]
activity at 30 µM (rat aortic VSMC [1]; Rattus norvegicus, VSMC, 48 h): 83.2 ± 10.4%
Anti-proliferative activity in rat aortic VSMC (in words) (rat aortic VSMC [1]): weakly active or inactive
